Key:
[1] = system: SOLNI (black nightshade); assay: Pre-emergence herbicidal activity, warm season; format: in vivo, Solanum nigrum; conditions: GR80 = lowest tested rate (300, 100, 30, 10 g/ha) with 80% or greater inhibition; approx. 14 days after treating; 30/21° C.
Summary of the method: (§1)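 Seeds sown in sterilised fertilised topsoil received surface-applied compound in 50:50 acetone/water, typically at 300, 100, 30 and 10 g/ha, then greenhouse-grown at 30/21° C (warm-season species) or 18/13° C (cool-season species). Percent inhibition versus untreated plants was scored at about 14 days, giving GR80; an asterisk marks activity short of 80% at the top rate.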

[2] = system: CIRAR (canada thistle (seedling)); assay: Pre-emergence herbicidal activity, warm season; format: in vivo, Cirsium arvense; conditions: GR80 = lowest tested rate (300, 100, 30, 10 g/ha) with 80% or greater inhibition; approx. 14 days after treating; 30/21° C.
Summary of the method: as §1

[3] = system: SORHA (johnsongrass (seedling)); assay: Pre-emergence herbicidal activity, warm season; format: in vivo, Sorghum halepense; conditions: GR80 = lowest tested rate (300, 100, 30, 10 g/ha) with 80% or greater inhibition; approx. 14 days after treating; 30/21° C.
Summary of the method: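 GR80 values derive from percent inhibition relative to untreated plants, read roughly 14 days after sowing and pre-emergence soil-surface treatment (compound in 50:50 acetone/water; rates typically 10, 30, 100, 300 g/ha). Warm-season weeds grew at 30/21° C day/night, cool-season ones at 18/13° C; an asterisk marks activity without reaching 80% at the highest rate.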

[4] = system: POLCO (wild buckwheat); assay: Pre-emergence herbicidal activity, cool season; format: in vivo, Polygonum convolvulus; conditions: lowest tested rate with 80% or greater inhibition; rates 300, 100, 30, 10 g/ha; about 14 days
Summary of the method: as §1

[5] = system: VERPE (creeping speedwell); assay: Pre-emergence herbicidal activity, cool season; format: in vivo, Veronica persicaria; conditions: lowest tested rate with 80% or greater inhibition; rates 300, 100, 30, 10 g/ha; about 14 days
Summary of the method: as §1

[6] = system: AGSST (creeping bentgrass); assay: Pre-emergence herbicidal activity, cool season; format: in vivo, Agrostis stolonifera; conditions: GR80 = lowest tested rate (300, 100, 30, 10 g/ha) with 80% or greater inhibition; approx. 14 days after treating; 18/13° C.
Summary of the method: as §1

[7] = system: SOLNI (black nightshade); assay: Pre-plant incorporated (PPI) herbicidal activity, warm season; format: in vivo, Solanum nigrum; conditions: PPI application
Procedure: (§2) In another set of tests, the pre-plant incorporated (PPI) activity of compounds of this invention was evaluated on the same species as for the pre-emergence tests described above. In the PPI tests the following procedure, designed to simulate PPI application, was used.
(§3) A pre-prepared topsoil mixture (described above) was placed in a pot and compacted to a depth of 1.0 to 1.25 cm from the top of the pot. Seeds of each of several monocotyledonous and dicotyledonous annual plant species were placed on top of the soil. A sufficient quantity of soil to cover the seeds and level fill the pot was weighed into an open container. A known amount of the test compound was dissolved or suspended in an organic solvent and applied by spraying to this cover soil. The cover soil was thoroughly mixed to distribute the test compound throughout the cover soil, and was then applied as a cover layer over the seeds. Untreated soil was used as a cover layer for control pots. After treatment the plants were placed in a greenhouse where they received 0.64 cm of overhead irrigation. All subsequent watering consisted of a light overhead mist and/or subirrigation as needed for germination and growth. Tables 9 and 10 below relate to warm season plant species which were placed after pre-emergence treatment in a greenhouse with a 30/21° C. day/night temperature regime. Tables 11 and 12 below relates to cool season plant species placed after pre-emergence treatment in a greenhouse or growth chamber with an 18/13° C. day/night temperature regime. Only the compounds of Examples 1, 6, 8, 11, 13 and 15-20 were included in PPI tests.
(§4) Approximately 14 days after planting and treating, the plants were observed and herbicidal efficacy recorded as percent inhibition by comparison with untreated plants.

[8] = system: BRAPP (broadleaf signalgrass); assay: as above; format: in vivo, Brachiaria platyphylla; conditions: PPI application
Procedure: as §2, §3, §4

[9] = system: SETVI (green foxtail); assay: Pre-plant incorporated (PPI) herbicidal activity, cool season; format: in vivo, Setaria viridis; conditions: weed, PPI application
Procedure: as §2, §3, §4

[10] = system: POAAN (annual bluegrass); assay: as above; format: in vivo, Poa annua; conditions: weed, PPI application
Procedure: as §2, §3, §4

CCN(CC)C(=O)n1cnc(S(=O)(=O)C(F)(F)Cl)n1 [Example 3]
Pre-emergence activity (GR80) SOLNI [1]: 100 g/ha
Pre-emergence activity (GR80) CIRAR [2]: 30 g/ha
Pre-emergence activity (GR80) SORHA [3]: 100 g/ha
Pre-emergence activity GR80, POLCO [4]: [empty]
Pre-emergence activity GR80, VERPE [5]: 100 g/ha
Pre-emergence activity (GR80) AGSST [6]: 30 g/ha
Percent inhibition SOLNI ([7]; 30 g/ha): 70%
Percent inhibition SOLNI ([7]; 100 g/ha): 100%
Percent inhibition SOLNI ([7]; 300 g/ha): 100%
Percent inhibition SOLNI ([7]; 900 g/ha): 100%
Percent inhibition BRAPP ([8]; 30 g/ha): 30%
Percent inhibition BRAPP ([8]; 100 g/ha): 100%
Percent inhibition BRAPP ([8]; 300 g/ha): 100%
Percent inhibition BRAPP ([8]; 900 g/ha): 90%
Percent inhibition SETVI ([9]; 30 g/ha): 100%
Percent inhibition SETVI ([9]; 100 g/ha): 100%
Percent inhibition SETVI ([9]; 300 g/ha): 100%
Percent inhibition SETVI ([9]; 900 g/ha): 100%
Percent inhibition POAAN ([10]; 30 g/ha): 70%
Percent inhibition POAAN ([10]; 100 g/ha): 100%
Percent inhibition POAAN ([10]; 300 g/ha): 100%
Percent inhibition POAAN ([10]; 900 g/ha): 100%

CCN(CC)C(=O)n1cnc(S(=O)(=O)C(F)(F)C(F)(F)Br)n1 [Example 4]
Pre-emergence activity (GR80) SOLNI [1]: 300 g/ha
Pre-emergence activity (GR80) CIRAR [2]: 30 g/ha
Pre-emergence activity (GR80) SORHA [3]: 30 g/ha
Pre-emergence activity GR80, POLCO [4]: 300 g/ha
Pre-emergence activity GR80, VERPE [5]: 10 g/ha
Pre-emergence activity (GR80) AGSST [6]: 10 g/ha
Percent inhibition SOLNI ([7]; 30 g/ha): 60%
Percent inhibition SOLNI ([7]; 100 g/ha): 95%
Percent inhibition SOLNI ([7]; 300 g/ha): 100%
Percent inhibition SOLNI ([7]; 900 g/ha): 100%
Percent inhibition BRAPP ([8]; 30 g/ha): 0%
Percent inhibition BRAPP ([8]; 100 g/ha): 60%
Percent inhibition BRAPP ([8]; 300 g/ha): 100%
Percent inhibition BRAPP ([8]; 900 g/ha): 100%
Percent inhibition SETVI ([9]; 30 g/ha): 99%
Percent inhibition SETVI ([9]; 100 g/ha): 100%
Percent inhibition SETVI ([9]; 300 g/ha): 100%
Percent inhibition SETVI ([9]; 900 g/ha): 100%
Percent inhibition POAAN ([10]; 30 g/ha): 95%
Percent inhibition POAAN ([10]; 100 g/ha): 75%
Percent inhibition POAAN ([10]; 300 g/ha): 100%
Percent inhibition POAAN ([10]; 900 g/ha): 100%
